Laboratory results as given in ChEMBL document CHEMBL5126584, “Synthesis of AC1903 analogs as potent transient receptor potential canonical channel 4/5 inhibitors and biological evaluation” (Bioorg Med Chem, 2022).
Activity calls are given as the source filed them. The rule behind the calls is not given here.

Columns and labels:
[1] = target: T1, Short transient receptor potential channel 5 (Homo sapiens, UniProt Q9UL62); test: Inhibition of human TRPC5 channel expressed in HEK293 cells assessed as inhibition of EA-evoked Calcium influx by measuring reduction in intracellular Ca2+ level and measured upto 360 sec by Fluo-4/AM dye based FLIPR assay; format: cell-based
T1 sequence (Q9UL62 whole entry): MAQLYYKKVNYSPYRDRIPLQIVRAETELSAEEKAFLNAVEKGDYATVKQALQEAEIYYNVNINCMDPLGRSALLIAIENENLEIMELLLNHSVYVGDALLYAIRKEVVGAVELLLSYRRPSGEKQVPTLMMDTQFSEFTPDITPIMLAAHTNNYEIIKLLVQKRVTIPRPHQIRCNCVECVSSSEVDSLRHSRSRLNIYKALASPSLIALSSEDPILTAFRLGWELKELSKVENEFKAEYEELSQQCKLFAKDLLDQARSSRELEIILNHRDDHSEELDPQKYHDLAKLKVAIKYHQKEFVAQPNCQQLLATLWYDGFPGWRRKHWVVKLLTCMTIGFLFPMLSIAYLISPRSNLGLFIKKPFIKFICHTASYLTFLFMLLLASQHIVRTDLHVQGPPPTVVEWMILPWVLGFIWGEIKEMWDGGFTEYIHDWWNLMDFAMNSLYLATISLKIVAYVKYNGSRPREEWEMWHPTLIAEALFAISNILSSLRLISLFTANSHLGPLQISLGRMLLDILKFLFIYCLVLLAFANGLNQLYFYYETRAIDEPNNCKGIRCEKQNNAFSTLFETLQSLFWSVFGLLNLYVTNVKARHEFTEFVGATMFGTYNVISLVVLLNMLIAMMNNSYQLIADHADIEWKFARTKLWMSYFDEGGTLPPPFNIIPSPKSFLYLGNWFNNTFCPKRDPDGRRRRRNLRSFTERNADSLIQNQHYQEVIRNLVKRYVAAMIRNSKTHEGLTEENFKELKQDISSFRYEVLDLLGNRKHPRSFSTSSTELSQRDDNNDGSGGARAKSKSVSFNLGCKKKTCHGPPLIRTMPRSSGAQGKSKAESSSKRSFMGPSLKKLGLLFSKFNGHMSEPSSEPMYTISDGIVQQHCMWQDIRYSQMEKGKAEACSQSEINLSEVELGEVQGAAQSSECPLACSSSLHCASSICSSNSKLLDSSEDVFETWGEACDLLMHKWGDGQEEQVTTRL

[2] = target: T2, Short transient receptor potential channel 4 (Homo sapiens, UniProt Q9UBN4); test: Inhibition of human TRPC4 channel expressed in HEK293 cells assessed as inhibition of EA-evoked Calcium influx by measuring reduction in intracellular Ca2+ level and measured upto 360 sec by Fluo-4/AM dye based FLIPR assay; format: cell-based
T2 sequence (Q9UBN4 whole entry): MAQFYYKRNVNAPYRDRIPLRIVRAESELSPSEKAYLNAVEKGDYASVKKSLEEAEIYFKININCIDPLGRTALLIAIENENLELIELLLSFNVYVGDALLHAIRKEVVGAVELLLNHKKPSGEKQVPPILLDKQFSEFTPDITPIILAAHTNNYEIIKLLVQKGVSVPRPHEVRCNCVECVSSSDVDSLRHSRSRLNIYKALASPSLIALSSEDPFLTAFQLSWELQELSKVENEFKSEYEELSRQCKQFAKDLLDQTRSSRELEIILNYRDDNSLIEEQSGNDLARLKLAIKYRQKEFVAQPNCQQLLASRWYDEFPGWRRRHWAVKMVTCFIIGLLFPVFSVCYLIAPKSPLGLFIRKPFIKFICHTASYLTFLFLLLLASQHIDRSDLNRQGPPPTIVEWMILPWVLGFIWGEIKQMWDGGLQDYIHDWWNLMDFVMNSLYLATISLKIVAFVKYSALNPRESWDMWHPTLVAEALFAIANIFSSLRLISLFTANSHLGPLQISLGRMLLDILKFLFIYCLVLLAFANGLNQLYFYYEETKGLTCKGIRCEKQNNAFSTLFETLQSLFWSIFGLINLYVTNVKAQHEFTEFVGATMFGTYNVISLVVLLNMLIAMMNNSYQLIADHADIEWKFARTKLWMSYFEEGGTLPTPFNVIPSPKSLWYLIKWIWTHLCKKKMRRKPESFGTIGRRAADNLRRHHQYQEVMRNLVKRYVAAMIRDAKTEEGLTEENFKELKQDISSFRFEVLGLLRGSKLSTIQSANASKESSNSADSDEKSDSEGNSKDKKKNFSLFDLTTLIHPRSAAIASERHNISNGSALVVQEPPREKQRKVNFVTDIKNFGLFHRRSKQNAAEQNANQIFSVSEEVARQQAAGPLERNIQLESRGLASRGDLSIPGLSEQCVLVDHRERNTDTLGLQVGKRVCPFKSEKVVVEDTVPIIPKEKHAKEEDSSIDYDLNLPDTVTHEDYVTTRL

MPC-5 [3] = test: Protective effect against protamine sulfate induced cytoskeleton rearrangement in mouse MPC-5 cell assessed as reduction in aggregated stress fibers at 1 to 3 uM pretreatment followed by PS stimulation and measured after 2 hrs by phalloidin and Hoechst 33342 staining based fluorescence analysis; format: functional; conditions: dose 1-3 µM
HaCaT [4] = test: Inhibition of IL-17 induced cell proliferation in human HaCaT cells assessed as decrease in BrdU positive (BrdU+) cells at 0.3 to 3 uM and measured after 24 hrs by BrdU incorporation assay; format: functional, cell-based; conditions: dose 0.3-3 µM
HaCaT [5] = test: Inhibition of IL-17 induced inflammation in human HaCaT cells assessed as reduction in IL-6 mRNA level at 0.3 to 3 uM by qRT-PCR analysis; format: functional, cell-based; conditions: dose 0.3-3 µM
HaCaT [6] = test: Inhibition of IL-17 induced inflammation in human HaCaT cells assessed as reduction in IL-8 mRNA level at 0.3 to 3 uM by qRT-PCR analysis; format: functional, cell-based; conditions: dose 0.3-3 µM
HaCaT [7] = test: Inhibition of IL-17 induced inflammation in human HaCaT cells assessed as reduction in CCL-20 mRNA level at 0.3 to 3 uM by qRT-PCR analysis; format: functional, cell-based; conditions: dose 0.3-3 µM
MPC-5 [8] = test: Protective effect against protamine sulfate induced cytoskeleton rearrangement in mouse MPC-5 cell assessed as reduction in aggregated stress fibers at 10 uM pretreatment followed by PS stimulation and measured after 2 hrs by phalloidin and Hoechst 33342 staining based fluorescence analysis; format: functional
HaCaT [9] = test: Inhibition of IL-17 induced cell proliferation in human HaCaT cells assessed as decrease in BrdU positive (BrdU+) cells at 10 uM and measured after 24 hrs by BrdU incorporation assay; format: functional, cell-based

| Compound | IC50 [1] [nM] | other results |
| --- | --- | --- |
| CCc1ccc2c(c1)nc(N1CCOCC1)n2Cc1ccccc1 | > 10000 | – |
| CCc1ccc2c(c1)nc(N1CCC3(CCCO3)CC1)n2Cc1ccccc1 | > 10000 | – |
| C=Cc1ccc2c(c1)nc(NCc1ccco1)n2Cc1ccccc1 | > 10000 | – |
| CCc1ccc2c(c1)nc(N1CC3(COC3)C1)n2Cc1ccccc1 | > 10000 | – |
| Oc1ccc2c(c1)nc(NCc1ccco1)n2Cc1ccccc1 | > 10000 | – |
| CCc1ccc2c(c1)nc(N1CCC(C)CC1)n2Cc1ccccc1 | > 10000 | – |
| Cc1ccc2nc(NCc3ccco3)n(Cc3ccccc3)c2c1 | > 10000 | – |
| C#Cc1ccc2c(c1)nc(NCc1ccco1)n2Cc1ccccc1 | > 10000 | – |
| CCc1ccc2c(c1)nc(N1CCN(C)CC1)n2Cc1ccccc1 | > 10000 | – |
| CCc1ccc2c(c1)nc(NCc1ccco1)n2Cc1ccccc1C(F)(F)F | > 10000 | – |
| CCc1ccc2c(c1)nc(NCCc1ccncc1)n2Cc1ccccc1 | 2950 | – |
| CCc1ccc2c(c1)nc(NCCN1CCCCC1)n2Cc1ccccc1 | 3350 | – |
| c1ccc(Cn2c(NCc3ccco3)nc3ccccc32)cc1 | 65000 | IC50 [2]: 77200 nM; Activity (MPC-5 [8]): Active; inhibition (HaCaT [9]): Active |
| CCc1ccc2c(c1)nc(N1CC3CCC(C1)O3)n2Cc1ccccc1 | > 10000 | – |
| CCc1ccc2c(c1)nc(NCc1ccco1)n2Cc1ccc(C)cc1 | 4630 | – |
| CCc1ccc2nc(NCc3ccco3)n(Cc3ccccc3)c2c1 | > 10000 | – |
| CCc1ccc2c(c1)nc(NCc1ccc(C#N)o1)n2Cc1ccccc1 | > 10000 | – |
| CCc1ccc2c(c1)nc(NCc1ccc(C)o1)n2Cc1ccccc1 | 2930 | – |
| CCc1ccc2c(c1)nc(NCc1ccccn1)n2Cc1ccccc1 | 3130 | – |
| CCc1ccc2c(c1)nc(NCCN1CCOCC1)n2Cc1ccccc1 | 2640 | – |

Stronger by IC50 [1], values ahead:

| IC50 [1] [nM] | Compound | other results |
| --- | --- | --- |
| 2410 | CCc1ccc2c(c1)nc(NCc1cccs1)n2Cc1ccccc1 | – |
| 2300 | CCc1ccc(Cn2c(NCc3ccco3)nc3cc(CC)ccc32)cc1 | – |
| 2270 | CCc1ccc2c(c1)nc(NCC1CCOC1)n2Cc1ccccc1 (stereo not given) | – |
| 2240 | CCc1ccc2c(c1)nc(NCc1ccco1)n2Cc1cccc(C(F)(F)F)c1 | – |
| 2210 | CCc1ccc2c(c1)nc(NCc1ccco1)n2Cc1ccc(OC)cc1 | – |
| 2210 | CCc1ccc2c(c1)nc(NCc1ccc(Cl)o1)n2Cc1ccccc1 | – |
| 1820 | CCc1ccc2c(c1)nc(NCC1CCCO1)n2Cc1ccccc1 (stereo not given) | – |
| 1350 | CCc1ccc2c(c1)nc(NCc1ccco1)n2Cc1ccc(C(F)(F)F)cc1 | – |
| 1340 | CCCc1ccc2c(c1)nc(NCc1ccco1)n2Cc1ccccc1 | – |
| 1020 | CCc1ccc2c(c1)nc(NCCc1ccco1)n2Cc1ccccc1 | – |
| 960 | CCc1ccc2c(c1)nc(NCc1ccco1)n2Cc1ccc(F)cc1 | – |
| 920 | CCc1ccc2c(c1)nc(NCc1ccco1)n2Cc1ccc(OC(F)(F)F)cc1 | – |
| 820 | c1ccc(Cn2c(NCc3ccco3)nc3cc(C4CC4)ccc32)cc1 | – |
| 670 | Cc1ccc2c(c1)nc(NCc1ccco1)n2Cc1ccccc1 | – |
| 570 | CC(C)c1ccc2c(c1)nc(NCc1ccco1)n2Cc1ccccc1 | – |
| 540 | CCc1ccc2c(c1)nc(NCc1ccco1)n2Cc1ccccc1 | IC50 [2]: 2060 nM; Activity (MPC-5 [3]): Active; inhibition (HaCaT [4]): Active; inhibition (HaCaT [5]): Active; inhibition (HaCaT [6]): Active; inhibition (HaCaT [7]): Active |
